According to ChEMBL document CHEMBL6087414, “Discovery of 4-(4-(3-(1-(2-(piperidin-1-yl)ethyl)-1H-benzo[d]imidazole-2-yl)isoxazol-5-yl)phenyl)morpholine as a novel c-Myc inhibitor against lung cancer in vitro and in vivo” (Eur J Med Chem, 2025):

Experiments:
[1] = tested on: A549; experiment: Cytotoxicity against human A549 cells assessed as inhibition of cell viability incubated for 48 hrs by CCK8 assay; type: functional, cell-based; settings: A549, 48 h
[2] = tested on: NCI-H1299; experiment: Cytotoxicity against human NCI-H1299 cells assessed as inhibition of cell viability incubated for 48 hrs by CCK8 assay; type: functional, cell-based; settings: NCI-H1299, 48 h

| Compound | IC50 [1] [µM] | IC50 [2] [µM] |
| --- | --- | --- |
| CN(C)c1ccc(-c2cc(-c3nc4ccccc4n3CCCN3CCOCC3)no2)cc1 | 13.6 | 17 |
| CCN(CC)CCCn1c(-c2cc(-c3ccc(N4CCCCC4)cc3)on2)nc2ccccc21 | 7.41 | 18 |
| c1ccc2c(c1)nc(-c1cc(-c3ccc(N4CCCCCC4)cc3)on1)n2CCN1CCCCCC1 | 14.8 | 26.4 |
| c1ccc2c(c1)nc(-c1cc(-c3ccc(N4CCOCC4)cc3)on1)n2CCN1CCOCC1 | 8.46 | 21 |
| c1ccc2c(c1)nc(-c1cc(-c3ccc(N4CCCCC4)cc3)on1)n2CCN1CCCC1 | 7.68 | 19 |
| CCN(CC)CCCn1c(-c2cc(-c3ccc(N4CCCCCC4)cc3)on2)nc2ccccc21 | 12.2 | 14.3 |
| CN(C)c1ccc(-c2cc(-c3nc4ccccc4n3CCCN3CCCCC3)no2)cc1 | 11.6 | 16.9 |
| CCc1ccc(C(=O)n2c(-c3cc(-c4ccc(N5CCOCC5)cc4)on3)nc3ccccc32)cc1 | 23.6 | 27.6 |
| c1ccc2c(c1)nc(-c1cc(-c3ccc(N4CCCCC4)cc3)on1)n2CCCN1CCOCC1 | 13.8 | 24.2 |
| c1ccc2c(c1)nc(-c1cc(-c3ccc(N4CCCCCC4)cc3)on1)n2CCN1CCOCC1 | 10.9 | 21 |
| O=C(c1ccccc1)n1c(-c2cc(-c3ccc(N4CCOCC4)cc3)on2)nc2ccccc21 | 20.9 | 19.5 |
| c1ccc2c(c1)nc(-c1cc(-c3ccc(N4CCOCC4)cc3)on1)n2CCN1CCCCCC1 | 9.94 | 27.6 |
| Cc1ccc(C(=O)n2c(-c3cc(-c4ccc(F)cc4)on3)nc3ccccc32)cc1 | > 40 | 30.1 |
| CN(C)CCCn1c(-c2cc(-c3ccc(N4CCCCCC4)cc3)on2)nc2ccccc21 | 8.19 | 12.9 |
| CN(C)c1ccc(-c2cc(-c3nc4ccccc4n3CCN3CCCCCC3)no2)cc1 | 11.4 | 18.2 |
| Cc1cc(C)cc(C(=O)n2c(-c3cc(-c4ccc(N5CCOCC5)cc4)on3)nc3ccccc32)c1 | 19.2 | > 40 |
| c1ccc2c(c1)nc(-c1cc(-c3ccc(N4CCCCC4)cc3)on1)n2CCN1CCCCC1 | 9.23 | 21.5 |
| c1ccc2c(c1)nc(-c1cc(-c3ccc(N4CCOCC4)cc3)on1)n2CCCN1CCOCC1 | 13.6 | 23.2 |
| c1ccc2c(c1)nc(-c1cc(-c3ccc(N4CCCCC4)cc3)on1)n2CCCN1CCCCC1 | 13.6 | 29.1 |
| c1ccc2c(c1)nc(-c1cc(-c3ccc(N4CCCC4)cc3)on1)n2CCN1CCOCC1 | 19.9 | 36 |
| CCN(CC)CCCn1c(-c2cc(-c3ccc(N4CCOCC4)cc3)on2)nc2ccccc21 | 8.53 | 22.1 |
| O=C(c1ccccc1)n1c(-c2cc(-c3ccc(F)cc3)on2)nc2ccccc21 | > 40 | 23.9 |
